# Results reported in US20260041744A1, “Methods for Treating Pompe Disease” (Amicus Therapeutics, Inc., priority 2022, published 2026).
# What was measured:
# [1] = design: species or system human; conditions: in vivo
# Description: Concomitant medications and nondrug therapies were also be recorded. […] Safety Analyses. Safety data was summarized using counts and percentages for categorical data and descriptive statistics (mean, standard deviation, median, minimum, maximum) for continuous data.
# [2] = system: adult subjects with late-onset Pompe disease (LOPD); experiment: Study ATB200-03 (PROPEL): GSGC total score; format: in vivo, human; conditions: for CHG to Week 52 in GSGC total score, LS Mean: MMRM, actual time point of assessments, decrease indicates improvement; for GSGC total score CHG, LS means (SE): Week 52, ANCOVA
# Experimental: The test for the primary endpoint was conducted first at the 1-sided 0.025 significance level, and if significant, the ordered key secondary endpoints were similarly tested at the same significance level. […] A nonparametric randomization based ANCOVA was specified as the first sensitivity analysis for 6MWD and FVC. […] For the purposes of data presentation in this document, 2-sided p-values are reported hereafter, except as otherwise noted.
# [3] = Week 52-LOCF, ERT-experienced Population
# [4] = Week 52-LOCF, ERT-naïve Subjects excluding Subject 4005-2511
# [5] = Week 52-LOCF, ITT excluding Subject 4005-2511
substance,measurement,setting,value
alglucosidase alfa [reference compound],participants with infusion (injection) associated reactions (IARs),[1],26%
same,patients who discontinued treatment due to an adverse event,[1],2.6%
same,"GSGC Total Score Absolute Value, Median","[2]; Baseline, ITT, ERT-naïve Subjects excluding Subject 4005-2511",9.00
same,"GSGC Total Score Absolute Value, Mean","[2]; Baseline, ITT, ERT-naïve Subjects excluding Subject 4005-2511, 4 points (normal) to 27 points (worst)",10.86
same,mean (SD) change in GSGC total score from baseline to Week 52,[2]; ERT-experienced Population,0.6 (1.83)
same,mean (SD) change in GSGC total score from baseline to Week 52,[2]; ERT-naïve excluding Subject 4005-2511,1.3 (1.80)
same,"Change in GSGC total score baseline to Week 52, LS means (SE) from ANCOVA","[2]; ITT-LOCF, ERT-naïve Subjects excluding Subject 4005-2511",0.91 (1.042)
same,"CHG to Week 52 in GSGC total score, LS Mean",[2]; ITT-OBS excluding Subject 4005-2511 (overall),0.8
same,"CHG to Week 52 in GSGC total score, LS Mean","[2]; ITT-OBS excluding Subject 4005-2511, ERT-naïve Subjects",1.3
same,"CHG to Week 52 in GSGC total score, LS Mean","[2]; ITT-OBS, ERT-experienced Subjects",0.5
same,"GSGC Total Score Absolute Value, Mean",[2]; [3],15.87
same,"GSGC Total Score Absolute Value, Median",[2]; [3],17.00
same,"GSGC Total Score CHG, Mean",[2]; [3],0.61
same,"GSGC total score CHG, Median",[2]; [3],0.00
same,"GSGC Total Score Absolute Value, Mean",[2]; [4],12.14
same,"GSGC Total Score Absolute Value, Median",[2]; [4],10.00
same,"GSGC Total Score CHG (change from baseline), Mean",[2]; [4],1.29
same,"GSGC Total Score CHG (change from baseline), Median",[2]; [4],1.00
same,"GSGC Total Score Absolute Value, Median",[2]; [5],16.00
same,"GSGC total score Absolute Value, Mean (SD)",[2]; [5],15.00 (4.488)
same,"GSGC total score CHG, Mean (SD)",[2]; [5],0.77 (1.813)
same,"GSGC total score CHG, Median",[2]; [5],0.50
same,"GSGC total score CHG, LS means (SE)",[2]; ITT-LOCF excluding Subject 4005-2511,0.847 (0.440)
same,"GSGC total score CHG, LS means (SE)","[2]; ITT-LOCF, ERT-experienced Population",0.65 (0.494)
same,GSGC outcome,"[2]; overall (and ERT-experienced) population, week 52",worsening
same,mean (SD) change in GSGC total score from baseline to Week 52,"[2]; overall population, negative = improvement, listed as alglucosidase alfa and placebo",0.77 (1.8)
same,mean (SD) change in GSGC total score from baseline to Week 52,"[2]; overall population, negative = improvement, listed as alglucosidase alfa/placebo",0.77 (1.81)
